Assay results reported in patent US20050054013A1, “Methods and products for identifying modulators of P2X7 receptor activity, and their use in the treatment of skeletal disorders” (Pfizer Inc, priority 2001, published 2005).

How the values were obtained:
[1] = tested on: IL-6; assay: In vivo cytokine production: IL-6 in peritoneal lavage of LPS-primed mice by ELISA; conditions: LPS-primed mice subsequently challenged with ATP; 4 hour time point
Procedure: Groups of mice are injected intraperitoneally (ip) with 1 μg of LPS. […] Samples of peritoneal lavages are spun down, and the supernatants are collected and tested for the presence of IL-1β and IL-6 using ELISAs (Amersham Life Sciences, Arlington Heights, Va. and Endogen, Woburn, Mass., respectively).
IL-1 signaling may lead to the production of other cytokines such as IL-6 (Allen et al. (2000), J. Exp. Med. 191:859-869). […] The animals are incubated for an additional period (e.g., 4 hours) and peritoneal lavages are collected several times during the course of the incubation and analyzed for cytokines by ELISA. […] By 4 hours, however, IL-6 levels recovered from the LPS-PBS treated animals returned to baseline.

[2] = target: T1, P2X7 receptor (Mus musculus, UniProt Q9Z1M0); assay: P2X7 receptor-mediated YoPro Yellow uptake in peritoneal macrophages; assay type: cell-based; conditions: peritoneal macrophages from wild-type animals, 5 mM ATP, extracellular YoPro Yellow
T1 construct: endogenous in cells; host or cells: peritoneal macrophages isolated from wild-type animals
T1 sequence (Q9Z1M0 1-595): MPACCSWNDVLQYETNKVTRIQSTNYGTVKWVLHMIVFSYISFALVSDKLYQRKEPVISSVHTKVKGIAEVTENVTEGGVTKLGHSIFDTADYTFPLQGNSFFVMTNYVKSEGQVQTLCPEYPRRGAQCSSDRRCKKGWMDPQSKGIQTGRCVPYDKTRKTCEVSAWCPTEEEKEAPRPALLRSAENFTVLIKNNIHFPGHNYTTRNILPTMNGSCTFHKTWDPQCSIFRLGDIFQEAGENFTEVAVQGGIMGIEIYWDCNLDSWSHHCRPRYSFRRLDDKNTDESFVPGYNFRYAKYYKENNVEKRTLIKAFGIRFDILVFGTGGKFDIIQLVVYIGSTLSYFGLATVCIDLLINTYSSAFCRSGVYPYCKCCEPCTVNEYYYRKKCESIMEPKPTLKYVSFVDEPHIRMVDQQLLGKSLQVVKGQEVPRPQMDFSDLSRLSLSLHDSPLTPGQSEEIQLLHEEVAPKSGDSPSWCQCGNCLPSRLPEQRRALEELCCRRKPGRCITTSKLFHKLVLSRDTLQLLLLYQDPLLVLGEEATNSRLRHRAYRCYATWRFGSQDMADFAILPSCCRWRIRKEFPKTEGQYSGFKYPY
Procedure: This increase in fluorescence results from internalization of the dye molecules followed by their binding to DNA; when bound to DNA, the fluorescence intensity increases.
When assaying P2X7 receptor function using isolated macrophages, the peritoneal macrophages are washed with isotonic medium (15 mM HEPES, pH 7.2, 135 mM NaCl, 5 mM KCl, […], […]) by centrifugation and the resulting cell pellet is suspended in isotonic medium to achieve a final cell concentration of about 1×10^6 cells/ml. Fifty μl of this cell suspension is placed into the wells of a plate (e.g., Microfluor “B” U-bottom plate, Dynatech, Chantilly, Va.), and 50 μl of a fluorescent dye (e.g., 2 μM YoPro Yellow, Molecular Probes, Eugene, Oreg.) dissolved in the isotonic medium is added to each well. Test compounds or control vehicles are added to the wells with or without the addition of […]. Fluorescence is monitored as a function of time at […]. For YoPro Yellow dye, excitation is at 450 nm and emission is measured at 530 nm. Test compounds which stimulate P2X7 receptor activity increase fluorescence as compared to control samples that lack test compound.

[3] = tested on: other P2X receptors; conditions: cited from earlier work

Nc1ncnc2c1ncn2[C@@H]1O[C@H](COP(=O)(O)OP(=O)(O)OP(=O)(O)O)[C@@H](O)[C@H]1O [ATP, adenosine triphosphate]
lavage fluid IL-6, peak value [1]: > 25 ng/mL | fluorescence intensity (YoPro Yellow internalization) [2]: time dependent increase in fluorescence intensity | ATP concentrations at which receptors activate [3]: less than or equal to 100 μM
